The source of these data is PMC10398685 (ACS Omega, 2023).

In general, Papp A→B refers to the apparent permeability from the apical to the basolateral side of a cell layer. By Papp B→A is commonly meant the apparent permeability from the basolateral to the apical side of a cell layer. A word on the efflux ratio: it is the permeability from basolateral to apical divided by that in the opposite direction, in the common usage.

The test system of series [1] is 6 human methyltransferases (PRMT6, SUV39H1, SUV39H2, SETDB1, SETD7, and MLL1). It is filed as biochemical. The note with it: tested at 1 μM by SPA assay, duplicate.
Series [2] can be described thus: Caco-2 permeability assay. It is filed as in vitro ADME. The note with it: human; for recovery at 3 h, 5 µM / Papp A→B at 3 h, 5 µM / Papp B→A at 3 h, 5 µM: Caco-2, 5 µM; for Papp A→B at 3 h, 5 µM / Papp B→A at 3 h, 5 µM: pH 7.4/7.4, 3 h; for efflux ratio at 3 h, 5 µM: Caco-2, (Papp B-A)/(Papp A-B). The protocol:
(§1) 3.6. Caco-2 permeability assay
(§2) Transepithelial bi-directional transport of tested compounds (5 µM, pH 7.4/7.4) across the Caco-2 monolayers was studied using the BD BioCoat HTS Caco -2 assay system (BD Biosciences, Bedford, MA) as described in detail elsewhere.17 Aliquots were collected from the donor and acceptor compartment at the end of transport period (3 h), integrity of monolayers were verified using Lucifer Yellow dye and the compounds were quantified using LC-MS/MS (Sciex 6500® triple quadrupole). The apparent permeability coefficient (Papp) was calculated from the following equation: Papp = (dQ / dt) / C0 * A, where dQ/dt is the rate of absorption of the drug across the cells, C0 is the donor compartment concentration at time zero, and A is the area of the monolayer. Efflux ratio was expressed as (Papp B-A) / (Papp A-B). Recovery (%) was determined as (total compound mass in donor and receiver compartments at the end of the incubation / initial compound mass in the donor compartment) x 100.
For orientation: Passage across Caco-2 layers is used to estimate intestinal permeability.

A further series deals with Calu-3 cells. In words: Steady-state intracellular uptake in Calu-3 cells. It counts as in vitro ADME. The settings on record: Calu-3, 60 min incubation, 50 μM at t = 0. The text has this:
(§3) While an enzymatic MTase assay represents a valuable fast screening platform providing the information that can be directly used for SAR analyses, it is not fully predictive for the compounds’ activity in whole cells. In order to verify the ability of the compounds to reach the intracellular compartment, we measured the steady-state accumulation of representative compounds in intact CCRF-CEM, VERO-E6, and Calu-3 cells (Tables 3 and S2). […] Compound 12q was almost completely cleared from the medium after 60 min incubation with the cells rendering it among the most permeable compounds of the series based on Kp values. It should be noted that the apparent intracellular concentration of the compounds may be biased by their potential metabolism. Therefore, we decided to subject the selected derivatives to in vitro stability studies. […]
(§4) methyltransferase activity as counts per minute (CPM). The CPM measurements in the absence of compound (5% DMSO) for each enzyme was defined as 100% activity.
(§5) 3.3. Intracellular Uptake
(§6) Steady-state cellular uptake was measured in CCRF-CEM cells (ATCC, CRL-119), VERO-E6 cells (ATCC, CRL-1586) and Calu-3 cells (HTB-55), respectively. Suspension cells (CCRF-CEM) were treated as follows: Prior to the experiment, cells were washed by centrifugation (250 x g, 5 min) in prewarmed (37 °C) serum-free RPMI medium and resuspended in the same vehicle to a concentration of 2 x 10^7 cells per mL. The cell suspension was distributed into the microtubes in 500 μL aliquots (10^7 cells), and the uptake process was initiated by the addition of 2.5 μL of the 10 mM DMSO solutions of the compounds (50 μM final conc.). Samples were incubated for 60 min at 37 °C in a CO 2 incubator using a rotary stirrer. The uptake was terminated by centrifugation at 900 x g for 5 min, at +4 °C. The medium was stored at −20 °C for later analysis of the extracellular concentration of the compounds. The cells were washed two times with 1 mL PBS (900 x g, 5 min, +4 °C), and also stored at −20 °C for subsequent analysis of the intracellular concentration of the compounds. At the day of the analysis, both media and the pelleted cells were quickly thawed. The cell pellets were extracted with 200 μL of ice-cold methanol by vigorous shaking, further diluted 1:1 with water and centrifuged at 20 000 x g for 10 min. As for the media samples, 10 μL aliquots were extracted with 990 μL of 50% methanol. The samples were then transferred to ECHO® -compatible 384-well plates and the amount of analytes were quantified by the ECHO -MS® System (Sciex) where acoustic droplet ejection module is coupled with Sciex 6500® triple quadrupole mass spectrometer operating with an electrospray ionization source. Spectrometer was run in the multiple reaction monitoring (MRM) mode. When necessary, the processed samples were further diluted in 50% methanol to fit in the calibration range. Calibration curves of the compounds in 50% methanol were measured alongside the samples within the same run. The ra tio between the total compound concentration in the cells and compound concentration in the medium (K p) at t=60 min was calculated according to: Kp = (Acell / Vcell) / Cmedium, where Acell is the amount of compound in the cell lysate, Vcell is the CCRF-CEM cell volume (3.38 μL/10^7 cells)16 and Cmedium is the compound concentration in the medium sample after correcting for sample dilution. Experiments were performed in duplicates.
(§7) For adherent cells (Vero E6 and Calu-3), the workflow was modified as follows: Cells were seeded on 6-well plates at a concentration of […] and 8.2 x 10^5 cells/well for Vero E6 and Calu-3, respectively, in 3 mL of serum-free culture media. The cells were left to attach overnight, the medium was then aspirated and replenished with 2 mL of fresh media containing the compounds (50 µM final conc). After 60 min at 37 °C the media was aspirated and the cells were washed twice with 1 mL of PBS. Then, 1 mL of fresh PBS was added and the cells were […]

Series [3] is described as follows: Steady-state intracellular uptake in Calu-3 cells. The note with it: human, Calu-3 cells; Calu-3, 60 min incubation, 50 μM at t = 0; read-out: Kp (intracellular accumulation ratio IC/EC) (converted). It is filed as in vitro ADME.
From the text: as §3, §4, §5, §6, §7

The target in series [4] is T1, SARS-CoV-2 nsp10-nsp16 complex (Severe acute respiratory syndrome coronavirus 2, UniProt P0DTD1).
T1 construct: Nsp10-nsp16 reactions contained 100 nM nsp10-nsp16 complex
It is filed as biochemical. The note with it: tested at 1 μM by SPA assay, duplicate.

For another series, the system named is Caco-2 monolayers. In words: Caco-2 permeability assay. It is filed as in vitro ADME. The settings on record: Caco-2, 5 µM, pH 7.4/7.4, 3 h. On the procedure: as §1, §2

On to `COc1ccc(S(=O)(=O)N(C)C[C@H]2O[C@@H](n3cc(C#Cc4ccc(C(N)=O)cc4)c4c(N)ncnc43)[C@H](O)[C@@H]2O)cc1C#N` [Compound 12r], for which the “Selectivity against 6 human methyltransferases” value in series [1] is “selective”. Moreover, in series [2], the recovery at 3 h, 5 µM stood at 1%; the Papp A→B at 3 h, 5 µM came to 0.1 ± 0.1 ×10⁻⁶ cm/s; the basolateral-to-apical permeability (Papp B→A) at 3 h, 5 µM was 0.1 ×10⁻⁶ cm/s; the efflux ratio at 3 h, 5 µM stood at 0.1. Moreover, the “EC (extracellular concentration in the media at t = 60 min) ± sd” value in the series on Calu-3 cells came to 4.0 ± 0.2 µM. In series [3], the Kp at 1 h, 50 µM is 1250. In series [4], the “Selectivity against SARS-CoV-2 nsp10-nsp16 complex” value is “selective”.
Consider `COc1ccc(S(=O)(=O)N(C)C[C@H]2O[C@@H](n3cc(C#Cc4cccnc4)c4c(N)ncnc43)[C@H](O)[C@@H]2O)cc1C#N` [Compound 12s], for which the “Selectivity against 6 human methyltransferases” value in series [1] is “selective”. Besides, in series [2], the recovery at 3 h, 5 µM was 3%; the Papp A→B at 3 h, 5 µM amounted to 0.4 ± 0.3 ×10⁻⁶ cm/s; the Papp B→A at 3 h, 5 µM was 0.3 ± 0.1 ×10⁻⁶ cm/s; the efflux ratio at 3 h, 5 µM is 1.3. Besides, in the series on Calu-3 cells, the “EC (extracellular concentration in the media at t = 60 min) ± sd” value was 14.7 ± 0.8 µM. In series [3], the Kp at 1 h, 50 µM is 106. For the same molecule, the “Selectivity against SARS-CoV-2 nsp10-nsp16 complex” value in series [4] is “selective”.
As for `COc1ccc(S(=O)(=O)N(C)C[C@H]2O[C@@H](n3cc(C#Cc4cnc5ccccc5c4)c4c(N)ncnc43)[C@H](O)[C@@H]2O)cc1C#N` [Compound 12q], the “Selectivity against 6 human methyltransferases” value in series [1] is “selective”. Further, in series [2], the recovery at 3 h, 5 µM came out at 4%; the apparent permeability from apical to basolateral (Papp A→B) at 3 h, 5 µM was 0.2 ×10⁻⁶ cm/s; the efflux ratio at 3 h, 5 µM is 0.4. Also, the “Papp B-A” value with Caco-2 monolayers was 0.0 ± 0.0 x10-6 (cm/s). Besides, in the series with Calu-3 cells, the “EC (extracellular concentration in the media at t = 60 min) ± sd” value was 5.6 ± 5.7 µM and the “IC (intracellular concentration in the cells at t = 60 min) ± sd” value is on record as 89,640 ± 6514 μM. For the same molecule, the “Selectivity against SARS-CoV-2 nsp10-nsp16 complex” value in series [4] is listed as “selective”.
On to `CCN(C[C@H]1O[C@@H](n2cc(C#Cc3cnc4ccccc4c3)c3c(N)ncnc32)[C@H](O)[C@@H]1O)S(=O)(=O)c1ccc(OC)c(C#N)c1` [Compound 12e], for which the “EC (extracellular concentration in the media at t = 60 min) ± sd” value in the series with Calu-3 cells amounted to 5 ± 4 µM. Also, in series [3], the Kp at 1 h, 50 µM is 1770.
For `CCN(C[C@H]1O[C@@H](n2cc(C#Cc3cccnc3)c3c(N)ncnc32)[C@H](O)[C@@H]1O)S(=O)(=O)c1ccc(OC)c(C#N)c1` [Compound 12l], in series [2], the recovery at 3 h, 5 µM worked out at 17%; the Papp A→B at 3 h, 5 µM came out at 0.1 ×10⁻⁶ cm/s; the basolateral-to-apical permeability (Papp B→A) at 3 h, 5 µM worked out at 0.1 ×10⁻⁶ cm/s; the efflux ratio at 3 h, 5 µM was 0.9.
